Data on 1 molecule can be found in US8450325B2, “Methods for reducing the recurrence of cardiac arrhythmia” (ChanRx Corp., priority 2002, dated 2013).

Entries after “also recorded” stand apart in the source; their conditions may differ.

One series deals with hERG (IKr) channel (Homo sapiens, UniProt Q12809). As to the kind of experiment: in vitro. The source says: (§1) Nonlinear least squares fits of the current ratio data yielded the best fit value for the IC50 concentration. A positive control was included for each channel tested in the study.
For the next series, the target named is hHNa ion channel (Homo sapiens, UniProt Q14524). As to the kind of experiment: voltage clamp current block, hHNa channel in stably transfected mammalian cells. In kind it is cell-based. To be noted: 0.1 Hz, 6 bpm.
hHNa ion channel, sequence (Q14524 whole entry): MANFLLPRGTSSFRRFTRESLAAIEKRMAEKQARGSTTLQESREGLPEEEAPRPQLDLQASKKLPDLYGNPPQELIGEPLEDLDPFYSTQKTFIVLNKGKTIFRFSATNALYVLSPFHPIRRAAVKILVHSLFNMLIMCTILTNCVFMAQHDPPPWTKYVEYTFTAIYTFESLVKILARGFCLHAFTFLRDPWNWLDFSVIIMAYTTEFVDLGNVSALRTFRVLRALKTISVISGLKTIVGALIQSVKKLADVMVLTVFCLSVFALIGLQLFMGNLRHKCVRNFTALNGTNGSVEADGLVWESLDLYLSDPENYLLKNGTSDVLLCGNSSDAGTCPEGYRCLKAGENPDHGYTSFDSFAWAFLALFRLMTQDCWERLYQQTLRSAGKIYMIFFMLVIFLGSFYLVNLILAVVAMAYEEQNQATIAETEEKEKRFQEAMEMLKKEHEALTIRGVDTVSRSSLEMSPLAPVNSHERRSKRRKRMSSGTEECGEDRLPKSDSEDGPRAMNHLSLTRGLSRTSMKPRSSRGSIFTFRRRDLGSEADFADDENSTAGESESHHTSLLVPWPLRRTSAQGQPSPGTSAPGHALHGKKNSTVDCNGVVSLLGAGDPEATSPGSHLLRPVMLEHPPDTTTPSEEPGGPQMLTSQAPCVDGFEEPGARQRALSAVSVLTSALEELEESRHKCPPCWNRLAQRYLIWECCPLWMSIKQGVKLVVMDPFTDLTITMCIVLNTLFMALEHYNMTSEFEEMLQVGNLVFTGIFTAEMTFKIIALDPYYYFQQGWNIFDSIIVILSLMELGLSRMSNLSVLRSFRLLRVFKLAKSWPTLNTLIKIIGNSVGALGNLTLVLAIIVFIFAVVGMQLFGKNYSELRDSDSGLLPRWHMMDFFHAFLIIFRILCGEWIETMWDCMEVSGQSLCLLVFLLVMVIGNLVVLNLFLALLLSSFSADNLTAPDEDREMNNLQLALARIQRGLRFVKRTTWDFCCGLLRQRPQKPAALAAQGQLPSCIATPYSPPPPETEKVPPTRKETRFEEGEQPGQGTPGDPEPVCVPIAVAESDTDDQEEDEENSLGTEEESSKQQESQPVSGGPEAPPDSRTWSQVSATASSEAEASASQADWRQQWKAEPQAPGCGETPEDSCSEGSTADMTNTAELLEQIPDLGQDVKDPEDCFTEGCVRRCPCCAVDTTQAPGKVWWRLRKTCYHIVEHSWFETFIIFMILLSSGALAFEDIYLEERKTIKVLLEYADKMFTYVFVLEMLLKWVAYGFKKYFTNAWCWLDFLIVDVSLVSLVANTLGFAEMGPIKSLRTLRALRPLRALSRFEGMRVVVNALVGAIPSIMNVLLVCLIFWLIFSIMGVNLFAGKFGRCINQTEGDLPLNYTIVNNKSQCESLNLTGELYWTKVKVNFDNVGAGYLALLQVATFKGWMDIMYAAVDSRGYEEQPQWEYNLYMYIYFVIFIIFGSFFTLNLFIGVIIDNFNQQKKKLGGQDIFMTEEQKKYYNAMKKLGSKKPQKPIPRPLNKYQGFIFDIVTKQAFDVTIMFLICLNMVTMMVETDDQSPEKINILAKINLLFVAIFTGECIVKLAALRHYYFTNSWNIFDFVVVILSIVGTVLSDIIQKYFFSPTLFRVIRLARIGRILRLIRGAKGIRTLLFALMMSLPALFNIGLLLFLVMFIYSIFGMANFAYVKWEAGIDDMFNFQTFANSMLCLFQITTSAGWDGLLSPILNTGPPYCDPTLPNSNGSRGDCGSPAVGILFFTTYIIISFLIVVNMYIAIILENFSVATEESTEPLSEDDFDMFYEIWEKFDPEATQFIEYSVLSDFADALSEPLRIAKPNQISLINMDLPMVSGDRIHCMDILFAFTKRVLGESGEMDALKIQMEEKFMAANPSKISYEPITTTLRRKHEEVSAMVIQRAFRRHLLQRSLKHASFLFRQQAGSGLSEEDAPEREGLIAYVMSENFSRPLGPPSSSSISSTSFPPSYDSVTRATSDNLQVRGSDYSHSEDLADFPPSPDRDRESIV
From the text: as §1

In series [1] the target is T1, native cardiac L-type calcium channel (gpCaCh, ICa,L) (Cavia porcellus, UniProt O35505).
T1 construct: native cardiac L-type calcium channel expressed in guinea pig cardiomyocytes; endogenous in cells; host or cells: guinea pig cardiomyocytes
T1 sequence (O35505 whole entry): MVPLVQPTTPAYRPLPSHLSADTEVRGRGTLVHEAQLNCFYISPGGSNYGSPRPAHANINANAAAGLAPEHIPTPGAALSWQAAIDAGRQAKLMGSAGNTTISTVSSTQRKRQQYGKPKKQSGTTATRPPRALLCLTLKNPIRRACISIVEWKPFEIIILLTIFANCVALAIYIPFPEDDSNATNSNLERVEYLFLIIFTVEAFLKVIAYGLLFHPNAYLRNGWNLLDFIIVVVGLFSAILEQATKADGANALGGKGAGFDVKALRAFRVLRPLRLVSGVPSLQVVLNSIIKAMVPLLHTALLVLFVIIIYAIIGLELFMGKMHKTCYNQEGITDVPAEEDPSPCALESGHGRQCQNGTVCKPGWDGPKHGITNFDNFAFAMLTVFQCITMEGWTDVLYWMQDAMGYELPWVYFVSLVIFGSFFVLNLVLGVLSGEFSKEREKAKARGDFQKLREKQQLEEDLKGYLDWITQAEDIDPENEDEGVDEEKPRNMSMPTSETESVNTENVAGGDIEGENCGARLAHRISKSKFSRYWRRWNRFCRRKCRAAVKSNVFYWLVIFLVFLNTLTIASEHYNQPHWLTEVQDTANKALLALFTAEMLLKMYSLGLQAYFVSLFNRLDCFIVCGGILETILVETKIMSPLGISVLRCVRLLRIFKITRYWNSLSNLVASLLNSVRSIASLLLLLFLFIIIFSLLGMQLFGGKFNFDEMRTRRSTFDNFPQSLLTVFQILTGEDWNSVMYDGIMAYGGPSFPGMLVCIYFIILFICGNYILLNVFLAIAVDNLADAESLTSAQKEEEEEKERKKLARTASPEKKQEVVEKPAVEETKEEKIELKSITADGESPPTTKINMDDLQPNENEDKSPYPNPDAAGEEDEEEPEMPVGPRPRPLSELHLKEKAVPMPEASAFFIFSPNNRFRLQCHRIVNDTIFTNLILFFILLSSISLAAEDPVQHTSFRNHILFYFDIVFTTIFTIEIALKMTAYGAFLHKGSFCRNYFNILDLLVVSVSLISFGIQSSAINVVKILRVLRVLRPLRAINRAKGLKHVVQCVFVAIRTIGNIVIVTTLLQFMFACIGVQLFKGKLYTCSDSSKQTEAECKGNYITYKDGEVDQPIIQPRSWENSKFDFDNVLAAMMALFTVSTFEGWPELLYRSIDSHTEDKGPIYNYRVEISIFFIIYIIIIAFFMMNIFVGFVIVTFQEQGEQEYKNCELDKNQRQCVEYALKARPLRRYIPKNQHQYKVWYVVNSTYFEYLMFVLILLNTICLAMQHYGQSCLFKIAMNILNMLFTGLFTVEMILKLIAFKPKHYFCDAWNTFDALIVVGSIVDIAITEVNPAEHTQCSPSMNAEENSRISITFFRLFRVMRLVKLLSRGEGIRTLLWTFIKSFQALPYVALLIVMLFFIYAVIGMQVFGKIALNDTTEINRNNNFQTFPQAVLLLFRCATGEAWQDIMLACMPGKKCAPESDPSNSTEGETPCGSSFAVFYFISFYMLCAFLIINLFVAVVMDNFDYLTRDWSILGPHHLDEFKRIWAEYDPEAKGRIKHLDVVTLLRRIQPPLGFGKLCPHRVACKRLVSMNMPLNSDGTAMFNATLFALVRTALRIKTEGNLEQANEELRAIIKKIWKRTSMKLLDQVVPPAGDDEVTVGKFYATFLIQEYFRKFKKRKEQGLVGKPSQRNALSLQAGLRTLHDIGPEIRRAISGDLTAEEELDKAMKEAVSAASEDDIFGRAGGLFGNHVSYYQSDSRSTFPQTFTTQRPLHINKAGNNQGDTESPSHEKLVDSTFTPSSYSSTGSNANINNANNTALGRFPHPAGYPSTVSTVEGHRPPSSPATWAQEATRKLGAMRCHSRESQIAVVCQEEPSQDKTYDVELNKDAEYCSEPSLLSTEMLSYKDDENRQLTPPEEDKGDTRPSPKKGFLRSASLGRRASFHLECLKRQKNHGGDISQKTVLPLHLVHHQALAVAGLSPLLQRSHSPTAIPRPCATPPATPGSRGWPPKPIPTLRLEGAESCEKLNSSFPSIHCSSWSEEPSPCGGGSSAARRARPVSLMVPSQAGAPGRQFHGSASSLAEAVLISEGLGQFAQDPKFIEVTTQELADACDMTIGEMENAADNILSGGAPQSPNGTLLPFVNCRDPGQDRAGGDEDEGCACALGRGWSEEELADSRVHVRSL
As to the kind of experiment: voltage clamp current block, native cardiac L-type calcium channel in guinea pig cardiomyocytes. Format: cell-based. Conditions: 0.05 Hz, 3 beats per minute.

Series [2] has as its target hKvLQT1/hminK (IKs) channel (Homo sapiens, UniProt P51787). As to the kind of experiment: voltage clamp current block, hKvLQT1/hminK channel in stably transfected mammalian cells. Format: cell-based. To be noted: 0.067 Hz, 4 bpm, unit inferred; read-out: IC50, block of IKs (hKvLQT1/hminK) channels.
For a further series, the target named is T2, rKv4.3 (Ito) channel (Rattus norvegicus, UniProt Q62897).
T2 sequence (Q62897 1-655): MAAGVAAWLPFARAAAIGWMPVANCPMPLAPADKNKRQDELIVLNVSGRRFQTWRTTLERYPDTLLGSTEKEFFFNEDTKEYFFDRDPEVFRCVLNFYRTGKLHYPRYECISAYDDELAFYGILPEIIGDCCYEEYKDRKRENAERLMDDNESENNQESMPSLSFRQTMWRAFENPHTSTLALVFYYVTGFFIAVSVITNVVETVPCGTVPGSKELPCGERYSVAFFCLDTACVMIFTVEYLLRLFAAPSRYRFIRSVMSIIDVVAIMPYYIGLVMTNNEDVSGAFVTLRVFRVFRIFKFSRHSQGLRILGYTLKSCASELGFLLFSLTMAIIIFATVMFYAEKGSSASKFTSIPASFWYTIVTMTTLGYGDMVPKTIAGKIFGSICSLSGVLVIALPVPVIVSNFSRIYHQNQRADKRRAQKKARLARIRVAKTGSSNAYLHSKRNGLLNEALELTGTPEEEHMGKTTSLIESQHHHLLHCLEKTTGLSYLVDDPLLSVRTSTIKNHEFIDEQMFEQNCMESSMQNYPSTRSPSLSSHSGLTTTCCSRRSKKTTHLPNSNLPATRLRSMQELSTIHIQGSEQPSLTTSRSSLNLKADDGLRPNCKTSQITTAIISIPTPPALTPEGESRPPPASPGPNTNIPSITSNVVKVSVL
As to the kind of experiment: voltage clamp current block, rKv4.3 channel in stably transfected mammalian cells. Conditions: Ito (rKv4.3); 0.067 Hz, 4 bpm. Format: cell-based.

A further series addresses hKv1.5 channel (Homo sapiens, UniProt P22460). In words: voltage clamp current block, hKv1.5 channel in stably transfected mammalian cells. Format: cell-based. To be noted: 0.1 Hz, 6 bpm.
A further series relates to dog Purkinje fibers. In words: duration of the cardiac action potential in dog Purkinje fibers. Set-up: dose or concentration left out as unconfirmed.
The conditions of series [3]: 100 mg doses for 1 week; cited from earlier work.

hKv1.5 channel, sequence (P22460 whole entry): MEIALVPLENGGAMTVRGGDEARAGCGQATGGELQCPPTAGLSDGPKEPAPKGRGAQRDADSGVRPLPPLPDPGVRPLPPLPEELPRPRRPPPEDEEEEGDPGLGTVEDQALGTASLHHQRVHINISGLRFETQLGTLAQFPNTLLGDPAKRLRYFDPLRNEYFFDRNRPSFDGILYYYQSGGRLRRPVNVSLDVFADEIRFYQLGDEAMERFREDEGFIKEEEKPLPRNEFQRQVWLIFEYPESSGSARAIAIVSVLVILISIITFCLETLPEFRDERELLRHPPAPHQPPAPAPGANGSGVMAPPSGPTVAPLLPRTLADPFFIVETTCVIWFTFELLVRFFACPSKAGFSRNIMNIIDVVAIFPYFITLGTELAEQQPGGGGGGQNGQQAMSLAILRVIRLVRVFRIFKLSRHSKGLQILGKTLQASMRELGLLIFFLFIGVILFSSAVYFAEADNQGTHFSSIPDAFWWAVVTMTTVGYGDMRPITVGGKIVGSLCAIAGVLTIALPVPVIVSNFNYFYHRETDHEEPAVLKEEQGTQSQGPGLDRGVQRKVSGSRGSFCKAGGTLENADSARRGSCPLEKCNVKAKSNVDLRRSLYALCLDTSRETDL

On to `Fc1ccc(C(OCCN2CCN(CCCc3ccccc3)CC2)c2ccc(F)cc2)cc1` [Vanoxerine, vanoxerine], for which the IC50 against hERG (IKr) channel was 150 nM; at hHNa ion channel (read-out: IC50 estimate, block of hHNa (Hill equation fit)), 570 nM; in series [1], 530 nM; in series [2] it was 4200 nM; on rKv4.3 (Ito) channel, 12000 nM; at hKv1.5 channel, 2000 nM. Further, the “Hill coefficient, block of hHNa” value on hHNa ion channel (Hill equation fit) was “greater than 2.0”. Further, in the series on dog Purkinje fibers, the “effect on the duration of the cardiac potential” value is reported as “no effect; also recorded: did not prolong”. In addition, the serum concentration result in series [3] is given as “about 100 nM”.
